Several values for one entry are separate records, joined by “and”; a condition that tells them apart may be missing. Identical values can stand only once.
Assays:
Type in all cases: physicochemical
[1] = Aqueous solubility of solid state forms (with post-solubility pH and XRPD of excess solid); settings: for pH of the sample post-solubility: after aqueous solubility test; for solid form of excess solid post aqueous solubility analysis (XRPD): excess solid analyzed by XRPD
[2] = Gravimetric Vapour Sorption (GVS), hygroscopicity, with post-GVS XRPD; settings: for GVS uptake: 25° C.; for solid form post-GVS (XRPD): material analyzed post-GVS by XRPD
Protocol: Approximately 10-20 mg of sample was placed into a mesh vapor sorption balance pan and loaded into an IGASorp Moisture Sorption Analyser balance by Hiden Analytical. The sample was subjected to a ramping profile from 40-90% relative humidity (RH) at 10% increments, maintaining the sample at each step until a stable weight had been achieved (98% step completion, minimum step length 30 minutes, maximum step length 60 minutes) at 25° C. After completion of the sorption cycle, the sample was dried using the same procedure to 0% RH, and finally taken back to the starting point of 40% RH, using the same parameters outlined above. Two complete cycles were performed. The weight change during the sorption/desorption cycles were plotted, allowing for the hygroscopic nature of the sample to be determined.

[3] = Variable temperature XRPD (VT-XRPD): polymorphic form at each temperature
Protocol: VT-XRPD analysis was carried out on a Philips X'Pert Pro Multipurpose diffractometer equipped with a temperature chamber. The samples were loaded onto the VT stage and scanned between 4 and 35.99 °2θ using Cu K radiation (α1 λ=1.54060 Å; α2=1.54443 Å; β=1.39225 Å; α1:α2 ratio=0.5) running in Bragg-Brentano geometry (step size 0.008 °2θ) using 40 kV/40 mA generator settings. Measurements were performed at various temperature profiles. Any holds at specific temperatures are described in the temperature profiles for individual samples.
In another embodiment, VT-XRPD analysis of Compound A Form 11 was carried out using the heating program below in Table 11.

[4] = Carr's index (powder flowability) of micronized material; settings: micronized to d50≤3 μm and d90≤5 μm; for Flowability: class from Carr's index
Protocol: A widely-used metric for how well a powder flows is Carr's index (see, for example, Wang, Y. B. and Williams, R. O. III, “Powders” in Remington: Essentials of Pharmaceutics, Felton, L., ed., London: Pharmaceutical Press, 2013 at pp. 422-423). The bulk density of a powder is measured, along with its corresponding tapped density (after allowing the powder to be compressed in a standard tap density tester, such as the Gardco JV1000, Paul N. Gardner Company, Pompano Beach, Fla., according to a standard method such as that described in Chapter 616 of the United States Pharmacopeia). Once the bulk and tapped densities of a powder have been determined experimentally, Carr's index can be calculated from the following equation: Carr's index=(tapped density−bulk density)/tapped density×100.

[5] = Stability studies: seeded slurry trials, XRPD of the solid; settings: substance used as seed material
Protocol: Samples of the Compound A Form slurries and the Compound A Form 11 slurries were taken for XRPD analysis after 24 hours at 40° C., after 2 hours at 5° C. and after 24 hours at 5° C.

[6] = 25° C., final scan after cooling from the top temperature

Row | Compound | pH of the sample post-solubility [1] | solid form of excess solid post aqueous solubility analysis (XRPD) [1] | hygroscopicity by GVS analysis [2] | solid form post-GVS (XRPD) [2] | VT-XRPD Polymorphic Form [3, 6] | VT-XRPD Polymorphic Form ([3]; 25° C., initial scan) | VT-XRPD Polymorphic Form ([3]; 50° C.) | VT-XRPD Polymorphic Form ([3]; 100° C.) | VT-XRPD Polymorphic Form ([3]; 160° C.) | VT-XRPD Polymorphic Form ([3]; 165° C.) | VT-XRPD Polymorphic Form ([3]; 170° C.) | VT-XRPD Polymorphic Form ([3]; 180° C.) | Carr's index [4] | Flowability [4] | aqueous solubility [1] [µg/mL] | GVS uptake ([2]; at 90% RH) [%] | Solid after 2 hours at 5° C. (XRPD) ([5]; slurry in 1-Propanol) | Solid after 24 hours at 5° C. (XRPD) ([5]; slurry in 1-Propanol) | Solid after 2 hours at 5° C. (XRPD) ([5]; slurry in Ethanol) | Solid after 24 hours at 5° C. (XRPD) ([5]; slurry in Ethanol) | other results
1 | Cc1cc(N2CCc3cc(F)ccc3C2)cc(C)c1NC(=O)CC(C)(C)C [Compound A Form 2, N-(4-(6-fluoro-3,4-dihydroisoquinolin-2(1H)-yl)-2,6-dimethylphenyl)-3,3-dimethylbutanamide] | 6.4 | Compound A Form 2 | slightly hygroscopic | Compound A Form 2 | Amorphous | Form 2 | Form 2 | Form 2 | Partially crystalline | Partially crystalline | Amorphous | Amorphous |  |  |  |  |  |  |  |  | solubility ([1]; water, thermodynamic from solid): < 100 µg/mL; GVS uptake ([2]; between 0-90% RH): 0.37%; VT-XRPD Polymorphic Form ([3]; 180° C. (post 10 minute hold)): Amorphous
2 | Cc1cc(N2CCc3cc(F)ccc3C2)cc(C)c1NC(=O)CC(C)(C)C [Compound A Form 4, N-(4-(6-fluoro-3,4-dihydroisoquinolin-2(1H)-yl)-2,6-dimethylphenyl)-3,3-dimethylbutanamide] | 6.3 and 4.9 | mixture of Compound A Form 4 and Compound A Form 11 | slightly hygroscopic | Compound A Form 4 | Form 9 | Form 4 | Form 4 | Form 4 |  |  |  |  | 8 | excellent | < 100 | 0.4 | Form 4 | Form 4 | Form 4 | Form 4 | VT-XRPD Polymorphic Form ([3]; 60° C.): Form 4; VT-XRPD Polymorphic Form ([3]; 70° C.): Form 4; VT-XRPD Polymorphic Form ([3]; 80° C.): Form 4; VT-XRPD Polymorphic Form ([3]; 95° C.): Form 4; VT-XRPD Polymorphic Form ([3]; 110° C. (5 minute hold)): Form 4 +; VT-XRPD Polymorphic Form ([3]; 120° C. (5 minute hold)): Form 4 +; VT-XRPD Polymorphic Form ([3]; 130° C. (5 minute hold)): Form 4 +; VT-XRPD Polymorphic Form ([3]; 140° C. (5 minute hold)): Form 9; Solid after 24 hours at 40° C. (XRPD) ([5]; slurry in 1-Propanol): Form 2 + 4; Solid after 24 hours at 40° C. (XRPD) ([5]; slurry in Ethanol): Form 4
3 | Cc1cc(N2CCc3cc(F)ccc3C2)cc(C)c1NC(=O)CC(C)(C)C [Compound A Form 9, N-(4-(6-fluoro-3,4-dihydroisoquinolin-2(1H)-yl)-2,6-dimethylphenyl)-3,3-dimethylbutanamide] | 7.3 | converted to Compound A Form 4 | slightly hygroscopic | Compound A Form 9 | Amorphous | Form 9 | Form 9 | Form 9 |  | Partially crystalline | Partially crystalline | Amorphous |  |  | < 100 | 0.8 |  |  |  |  | VT-XRPD Polymorphic Form ([3]; 150° C.): Form 9; VT-XRPD Polymorphic Form ([3]; 155° C.): Form change noted-Similar to Form 9
4 | Cc1cc(N2CCc3cc(F)ccc3C2)cc(C)c1NC(=O)CC(C)(C)C [Compound A Form 11, N-(4-(6-fluoro-3,4-dihydroisoquinolin-2(1H)-yl)-2,6-dimethylphenyl)-3,3-dimethylbutanamide] |  |  | slightly hygroscopic | mixture of Compound A Form 4 and Compound A Form 11 | Amorphous | Form 11 | Form 11 | Form 11 | Partially crystalline | Partially crystalline | Partially crystalline | Partially crystalline |  |  |  | 0.5 | Form 4 | Form 4 | Form 4 | Form 4 | VT-XRPD Polymorphic Form ([3]; 150° C.): Form change; VT-XRPD Polymorphic Form ([3]; 155° C.): Partially crystalline; VT-XRPD Polymorphic Form ([3]; 190° C.): Amorphous; Solid after 24 hours at 40° C. (XRPD) ([5]; slurry in Ethanol): Form 2
5 | Cc1cc(N2CCc3cc(F)ccc3C2)cc(C)c1NC(=O)CC(C)(C)C [Compound A, N-(4-(6-fluoro-3,4-dihydroisoquinolin-2(1H)-yl)-2,6-dimethylphenyl)-3,3-dimethylbutanamide] |  |  |  |  |  |  |  |  |  |  |  |  | 36 | very poor |  |  |  |  |  |  | 

From patent publication US11091441B2, “Solid state crystalline forms of a selective potassium channel modulator” (Xenon Pharmaceuticals Inc., priority 2019, dated 2021)
